Structures are written as SMILES.

Data on 22 compounds can be found in patent US12281057B2 (VERTEX PHARMACEUTICALS INCORPORATED, priority 2017, dated 2025).

Sequence of truncated form of human NaV 1.8 with full channel activity (Q9Y5Y9 126-1722 limits assumed): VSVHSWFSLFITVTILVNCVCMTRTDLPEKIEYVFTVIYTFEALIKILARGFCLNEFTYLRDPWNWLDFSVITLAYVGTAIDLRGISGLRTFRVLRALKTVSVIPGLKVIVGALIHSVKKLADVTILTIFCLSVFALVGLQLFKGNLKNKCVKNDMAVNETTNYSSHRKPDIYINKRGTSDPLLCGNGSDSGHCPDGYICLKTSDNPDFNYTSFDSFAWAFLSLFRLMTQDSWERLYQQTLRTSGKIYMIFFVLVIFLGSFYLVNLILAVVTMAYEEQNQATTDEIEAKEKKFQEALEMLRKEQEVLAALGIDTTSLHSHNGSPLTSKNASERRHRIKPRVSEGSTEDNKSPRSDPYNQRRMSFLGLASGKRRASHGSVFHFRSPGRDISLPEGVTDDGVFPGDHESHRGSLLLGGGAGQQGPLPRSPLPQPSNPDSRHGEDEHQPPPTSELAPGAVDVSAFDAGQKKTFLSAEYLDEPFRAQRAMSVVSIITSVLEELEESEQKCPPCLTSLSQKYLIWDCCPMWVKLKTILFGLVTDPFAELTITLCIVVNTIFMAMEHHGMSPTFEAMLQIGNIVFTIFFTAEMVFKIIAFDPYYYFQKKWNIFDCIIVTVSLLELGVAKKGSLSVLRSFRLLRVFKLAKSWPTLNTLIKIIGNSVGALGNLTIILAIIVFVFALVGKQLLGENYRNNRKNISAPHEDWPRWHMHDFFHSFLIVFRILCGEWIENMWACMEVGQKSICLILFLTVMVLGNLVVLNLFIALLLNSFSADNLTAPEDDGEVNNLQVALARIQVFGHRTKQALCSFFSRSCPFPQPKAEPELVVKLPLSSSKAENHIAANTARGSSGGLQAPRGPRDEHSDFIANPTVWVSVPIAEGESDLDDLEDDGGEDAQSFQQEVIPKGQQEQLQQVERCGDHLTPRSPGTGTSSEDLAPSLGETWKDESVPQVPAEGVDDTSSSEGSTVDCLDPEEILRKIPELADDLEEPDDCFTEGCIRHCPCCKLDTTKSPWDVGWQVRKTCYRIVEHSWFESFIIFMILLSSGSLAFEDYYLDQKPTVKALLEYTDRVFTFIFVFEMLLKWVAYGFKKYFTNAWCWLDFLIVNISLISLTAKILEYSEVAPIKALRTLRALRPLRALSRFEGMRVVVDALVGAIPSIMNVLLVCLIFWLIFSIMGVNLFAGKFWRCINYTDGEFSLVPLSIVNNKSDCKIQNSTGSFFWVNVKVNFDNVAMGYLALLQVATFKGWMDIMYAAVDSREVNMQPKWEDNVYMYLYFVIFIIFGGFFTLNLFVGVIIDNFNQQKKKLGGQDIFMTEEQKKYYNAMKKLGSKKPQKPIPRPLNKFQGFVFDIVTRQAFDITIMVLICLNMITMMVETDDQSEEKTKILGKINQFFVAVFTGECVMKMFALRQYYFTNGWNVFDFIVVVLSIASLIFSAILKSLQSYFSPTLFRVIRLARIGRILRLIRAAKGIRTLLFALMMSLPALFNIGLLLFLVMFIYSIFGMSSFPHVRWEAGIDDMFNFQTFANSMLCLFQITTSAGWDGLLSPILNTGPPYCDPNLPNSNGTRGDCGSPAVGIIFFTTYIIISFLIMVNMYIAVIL

The first test concerns the target truncated form of human NaV 1.8 with full channel activity (Homo sapiens, UniProt Q9Y5Y9). Briefly: E-VIPR Assay Method A for detecting and measuring Nav inhibition (HEK cells, membrane potential FRET dyes, electrical stimulation). It is filed as cell-based. As to conditions: HEK cells expressing human NaV 1.8, HS (human serum) in compound loading buffer, 11 point dose response, top dose 3 μM, Table 20, read-out: Nav 1.8 MedChem Optical Assay EVIPR Assay Method A HS IC50. The procedure, abridged:
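Read-out: FRET membrane-potential dye ratio (460/580 nm) before and during E-VIPR field stimulation at 10 Hz for 10 s, expressed as % activity between DMSO and positive controls. Cells: HEK with truncated human NaV1.8; compound preincubated 30 min at room temp, final DMSO 0.625%.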
For `COc1cc(OC(F)(F)F)ccc1Oc1ccc(C(F)(F)C(F)(F)F)cc1C(=O)Nc1ccc(F)c(C(N)=O)c1` [Compound 19, N-(3-carbamoyl-4-fluoro-phenyl)-2-[2-methoxy-4-(trifluoromethoxy)phenoxy]-5-(1,1,2,2,2-pentafluoroethyl)benzamide], the IC50 (in general, the concentration needed to halve the response being measured) is 10 nM.

The same test, now with this note: HEK cells expressing human NaV 1.8, HS (human serum) in compound loading buffer, 11 point dose response, top dose 3 μM, Table 20A, read-out: Nav 1.8 MedChem Optical Assay EVIPR Assay Method A HS IC50.
Turning to `COc1cc(OC(F)(F)F)ccc1Oc1cnc(C(F)(F)F)cc1C(=O)Nc1ccc(F)c(C(N)=O)c1` [Compound 68, N-(3-Carbamoyl-4-fluoro-phenyl)-5-[2-methoxy-4-(trifluoromethoxy)phenoxy]-2-(trifluoromethyl)pyridine-4-carboxamide], the IC50 came out at 21 nM.

`COc1cc(OC(F)(F)F)ccc1Oc1ccc(C(F)(F)F)c(F)c1C(=O)Nc1ccnc(C(N)=O)n1` [Compound 207, 4-[[2-Fluoro-6-[2-methoxy-4-(trifluoromethoxy)phenoxy]-3-(trifluoromethyl)benzoyl]amino]pyrimidine-2-carboxamide]: the IC50 is 27 nM.

With `[2H]C([2H])([2H])Oc1cc(OC(F)(F)F)ccc1Oc1ccc(C(F)(F)F)c(F)c1C(=O)Nc1cccc(C(N)=O)n1` [Compound 168, 6-[[2-Fluoro-6-[2-(trideuteriomethoxy)-4-(trifluoromethoxy)phenoxy]-3-(trifluoromethyl)benzoyl]amino]pyridine-2-carboxamide], the IC50 was 140 nM.

On to `NC(=O)c1cc(NC(=O)c2c(Oc3ccc(OC(F)(F)F)cc3)ccc(F)c2F)ccc1F` [Compound 63, N-(3-Carbamoyl-4-fluoro-phenyl)-2,3-difluoro-6-[4-(trifluoromethoxy)phenoxy]benzamide], for which the IC50 was found to be 140 nM.

For `COc1cc(OC(F)(F)F)ccc1Oc1cc(C(F)(F)F)cnc1C(=O)Nc1ccc(F)c(C(N)=O)c1` [Compound 32, N-(3-Carbamoyl-4-fluoro-phenyl)-3-[2-methoxy-4-(trifluoromethoxy)phenoxy]-5-(trifluoromethyl)pyridine-2-carboxamide], the IC50 came to 55 nM.

On to `NC(=O)c1cc(NC(=O)c2c(Oc3ccc(OC(F)(F)F)cc3)ccc(OC(F)(F)F)c2F)ccn1` [Compound 243, 4-[[2-fluoro-3-(trifluoromethoxy)-6-[4-(trifluoromethoxy)phenoxy]benzoyl]amino]pyridine-2-carboxamide], for which the IC50 came to 24 nM.

Turning to `COc1cc(OC(F)(F)F)ccc1Oc1cncc(F)c1C(=O)Nc1ccnc(C(N)=O)c1` [Compound 165, N-(2-Carbamoyl-4-pyridyl)-3-fluoro-5-[2-methoxy-4-(trifluoromethoxy)phenoxy]pyridine-4-carboxamide], the IC50 stood at 340 nM.

As for `COc1cc(OC(F)(F)F)ccc1Oc1cc(Cl)cc(OC)c1C(=O)Nc1cc(C(N)=O)ncc1C` [Compound 133, 4-[[4-Chloro-2-methoxy-6-[2-methoxy-4-(trifluoromethoxy)phenoxy]benzoyl]amino]-5-methyl-pyridine-2-carboxamide], the IC50 worked out at 430 nM.

On to `COc1cc(OC(F)(F)F)ccc1Oc1cc(Cl)cc(F)c1C(=O)Nc1ccnc(C(N)=O)c1` [Compound 170, 4-[[4-Chloro-2-fluoro-6-[2-methoxy-4-(trifluoromethoxy)phenoxy]benzoyl]amino]pyridine-2-carboxamide], for which the IC50 came out at 14 nM.

Regarding `NC(=O)c1cc(NC(=O)c2c(Oc3ccc(OC(F)(F)F)cc3)ccc(Cl)c2F)ccc1F` [Compound 73, N-(3-Carbamoyl-4-fluoro-phenyl)-3-chloro-2-fluoro-6-[4-(trifluoromethoxy)phenoxy]benzamide], the IC50 came to 23 nM.

Consider `CNC(=O)c1cccc(NC(=O)c2c(Oc3ccc(OC(F)(F)F)cc3OC)ccc(C(F)(F)F)c2F)c1` [Compound 98, 2-fluoro-6-[2-methoxy-4-(trifluoromethoxy)phenoxy]-N-[3-(methylcarbamoyl)phenyl]-3-(trifluoromethyl)benzamide], for which the IC50 was found to be 15 nM.

As to `COc1cc(OC(F)(F)F)ccc1Oc1cc([C@H]2C[C@@H]2C)ncc1C(=O)Nc1ccc(F)c(C(N)=O)c1` (single isomer, unassigned) [Compound 113], the IC50 was determined as 84 nM.

For the compound `NC(=O)c1cc(NC(=O)c2c(Oc3ccc(OC(F)(F)F)cc3)ccc(C(F)(F)F)c2F)ccn1` [Compound 48, 4-[[2-fluoro-6-[4-(trifluoromethoxy)phenoxy]-3-(trifluoromethyl)benzoyl]amino]pyridine-2-carboxamide], the IC50 came to 23 nM.

Take `NC(=O)c1cc(NC(=O)c2c(Oc3ccc(OC(F)(F)F)cc3)ccc(F)c2F)ccn1` [Compound 64, 4-[[2,3-Difluoro-6-[4-(trifluoromethoxy)phenoxy]benzoyl]amino]pyridine-2-carboxamide]: the IC50 was 185 nM.

As to `Cc1cc(OC(F)(F)F)ccc1Oc1ccc(C(F)(F)F)c(F)c1C(=O)Nc1ccnc(C(N)=O)c1` [Compound 59, 4-[[2-fluoro-6-[2-methyl-4-(trifluoromethoxy)phenoxy]-3-(trifluoromethyl)benzoyl]amino]pyridine-2-carboxamide], the IC50 came out at 7 nM.

Regarding `Cc1cc(OC(F)(F)F)ccc1Oc1ccc(C(F)(F)F)c(F)c1C(=O)Nc1ccc(C(N)=O)c(F)c1` [Compound 66, N-(4-carbamoyl-3-fluoro-phenyl)-2-fluoro-6-[2-methyl-4-(trifluoromethoxy)phenoxy]-3-(trifluoromethyl)benzamide], the IC50 is 38 nM.

With `Cc1cnc(C(N)=O)cc1NC(=O)c1c(Oc2ccc(OC(F)(F)F)c(F)c2)ccc(Cl)c1F` [Compound 245, 4-[[3-chloro-2-fluoro-6-[3-fluoro-4-(trifluoromethoxy)phenoxy]benzoyl]amino]-5-methyl-pyridine-2-carboxamide], the IC50 turned out to be 36 nM.

Take `COc1cc(Oc2ccc(C(F)(F)F)c(F)c2C(=O)Nc2ccc(F)c(C(N)=O)c2)ccc1OC(F)(F)F` [Compound 126, N-(3-Carbamoyl-4-fluoro-phenyl)-2-fluoro-6-[3-methoxy-4-(trifluoromethoxy)phenoxy]-3-(trifluoromethyl)benzamide]: the IC50 was found to be 47 nM.

Turning to `COc1cc(OC(F)(F)F)ccc1Oc1cc(C2CC2(F)F)ncc1C(=O)Nc1ccc(F)c(C(N)=O)c1` (stereo not shown) [Compound 108, N-(3-Carbamoyl-4-fluoro-phenyl)-6-(2,2-difluorocyclopropyl)-4-[2-methoxy-4-(trifluoromethoxy)phenoxy]pyridine-3-carboxamide], the 50% inhibitory concentration (IC50) worked out at 50 nM.

For `NC(=O)c1cc(NC(=O)c2c(Oc3ccc(OC(F)(F)F)nc3)ccc(C(F)(F)F)c2F)ccc1F` [Compound 69, N-(3-carbamoyl-4-fluoro-phenyl)-2-fluoro-6-[[6-(trifluoromethoxy)-3-pyridyl]oxy]-3-(trifluoromethyl)benzamide], the IC50 was determined as 56 nM.

With `COc1cc(OC(F)(F)F)ccc1Oc1cnc(C(F)(F)F)c(F)c1C(=O)Nc1ccc(C(N)=O)nc1` [Compound 194, N-(6-carbamoyl-3-pyridyl)-3-fluoro-5-[2-methoxy-4-(trifluoromethoxy)phenoxy]-2-(trifluoromethyl)pyridine-4-carboxamide], the IC50 turned out to be 21 nM.
